Key:
[1] = test system: vector-only (V/O) CHO-K1 cells; test: Fluorescence microscopy validation of labeled peptide specificity on live vector-only cells; format: binding; settings: 1 µM TMR-RK8, 5 min at room temperature, HBSS; Zeiss Axio Observer, BPTmX channel
Protocol: BMLK3 and vector-only cells were cultured in selective media (F-12K medium containing 10% fetal bovine serum and 800 µg/mL-1 of G418 sulfate), cells were seeded in […] (CELLSTAR®, Greiner Bio-One®, Monroe, NC USA) at 20,000 cells per well and were incubated overnight. The next assay, the cell culture medium was removed, and cells were rinsed twice with 200 µl DPBS, and 180 µl of HBSS buffer was added into each well. The peptide stock solutions were prepared in 1% DMSO in HBSS at 100 µM. TMR-RK8 (20 µl) was added into each well and incubated with the cells for 5 min at room temperature. The medium was then removed with a pipette and the cells were rinsed twice with 200 µl HBSS, and DAPI (VECTASHIELD® H-1200, Vector Laboratories) was added (20 µl of 0.15 µg/ml) for visualizing the cell nuclei. Cells were rinsed twice with 200 µl of HBSS, and finally 180 µl HBSS per well was added.
The cells were immediately imaged under a Zeiss Axio Observer® inverted fluorescence microscope. The exposure time for the Bodipy-Tetramethylrhodamine-X (BPTmX) fluorescence channel was the same for BMLK3 cells and V/O cells. DAPI imaging was done subsequently using the same focal height as the BPTmx channel.

[2] = test system: vector-only (V/O) CHO-K1 cells; test: Cellular end-point fluorescence calcium mobilization assay, vector-only control cells; format: cell-based; settings: 10 µM peptide, Fluo-8, 29 °C, 60 s, 4 technical replicates
Text: Three peptides were used in this study. These included: 1) the ligand for the endogenous tick kinin receptor from Rhipicephalus sanguineus, Rhisa-kinin 8 peptide of sequence GTGEDQAFSPWGamide (Rhisa-K-8; RK8; of identical sequence to Rhimi-K-8 in Rhipicephalus microplus)[48], 2) the same peptide but fluorescently labeled at the N-terminus with tetramethylrhodamine (TMR) a red fluorescent dye, designated TMR-Rhisa-K-8 (TMR-RK8), and 3) a labeled peptide synthesized with the scrambled sequence of the kinin ligand, designated TMR-Scrambled. The sequence of TMR-RK8 was TMR-C-GTGEDQAFSPWGamide). The TMR-Scrambled kinin (TMR-C-GTQWGPGFEADSamide) served as a negative control for tissue labeling. […]
A fluorescence-based intracellular calcium mobilization end-point assay described by Xiong, et al.[50] was used to confirm the activity of the TMR-labeled RK8 peptide on a cell line expressing the tick kinin receptor. […] The calcium fluorescence signal was detected by a CLARIOstar (BMG LABTECH, Chicago, IL, United States) plate reader set to read at the fluorescence plate-mode with excitation and emission wavelengths of 490 and 525 nm at 29 °C. Calcium responses were read immediately after the addition of 10 µL of either TMR-RK8, unlabeled RK8, or blank solvent (1% DMSO in HBSS). […]

With TMR-C-GTGEDQAFSPWGamide [TMR-RK8] the “labeling of vector-only cells, Fig. S1 (in words)” value [1] was “only observed in the BLMK3 cells” and the “calcium fluorescence response of vector-only cells (in words)” value [2] was “invariable background fluorescence”.

Source: article PMC11091117, “A fluorescently-tagged tick kinin neuropeptide triggers peristalsis and labels tick midgut muscles” (Scientific Reports, 2024)
